# Reference: patent US20080119483A1, “COMPOSITIONS AND METHODS FOR INHIBITING PROTOZOAN GROWTH” (priority 2006, published 2008)
# “Also recorded” adds a separate entry of the source. Read-outs that look alike come from different tables or passages of the source.
# Experiments:
# [1] = system: L. major LV39 WT promastigotes; experiment: microbe, parasite or virus in culture; format: cell-based, Leishmania major; settings: for EC50: Leishmania major
# Method: (§1) Log phase L. major LV39 WT and spt2 promastigotes were inoculated at 1.0×10^5 cells/ml and culture densities were determined 48 hours later.
# (§2) Wild type (WT) L. major LV39 clone 5 (Rho/SU/59/P), FV1 (MOHM/IL/80/Friedlin virulent clone 1), spt2^− (Δspt2::HYG/Dspt2::PAC), ads1^− (Δads1::HYG/Dads1::SAT), and spt2^−/+SPT2 (Δspt2::HYG/Dspt2::PAC/+pXG-SPT2) cells were grown in M199 with 10% FBS and supplements as described [Zhang, et al., 2003; Kapler, et al., 1990]. For growth inhibition assays, promastigotes were inoculated at 1.0×10^5 cells/ml (in T25 flasks, 5 ml of medium per flask) in various concentrations of drugs. All cultures contained equivalent amount of DMSO or methanol (0.1% or less, from drug stocks). After 48 or 96 (for ads1^− only) hours, culture densities were determined using a Coulter counter (Z1, Beckman) and effects of drugs on growth were assessed in relative to cultures grown in the absence of drugs.
# A classical isobologram was constructed by plotting EC50s of drugs either alone or in combination.
# [2] = system: Leishmania amastigotes growing in murine macrophages; experiment: Amastigotes growing in murine macrophages; format: cell-based; settings: preliminary results, data not shown
# [3] = system: L. major ads1^− promastigotes; experiment: Growth inhibition assay, EPL-null ads1^− mutant versus FV1 WT; format: cell-based, Leishmania major; settings: 96 hours for ads1^−
# Method: as §2
# [4] = system: L. major spt2^− promastigotes; experiment: microbe, parasite or virus in culture; format: cell-based, Leishmania major; settings: for EC50: Leishmania major, 48 h, read-out: EC50 in spt2^−; for EC50 (WT)/EC50 (spt2^−): ratio
# Method: as §1, §2
# [5] = system: L. major LV39 WT promastigotes; experiment: Composition of free sterols by GC/MS, WT promastigotes; format: cell-based, Leishmania major; settings: 48 hours
# Method: (§3) Log phase L. major LV39 WT and spt2^− promastigotes were grown in the presence or absence of ITZ or CLT. Culture densities were determined 48 hours later and total lipids were extracted and the composition of free sterols was determined by GC/MS as described in Materials and Methods. ND: not detectable. Each experiment was repeated at least 3 times and results from one representative set were shown.
# (§4) Here WT and spt2^− parasites were grown in various concentrations of ITZ (0.001 nM to 1 μM) or CLT (10 nM to 5 μM). Effects of ITZ and CLT on growth, sterol composition and DRM were analyzed after 48 hours. Basically, culture densities were determined using a particle counter and drugs' effects on growth were assessed in comparison to control cells (no drug); sterol lipids were extracted and analyzed by GC/MS and the percentage of 14-methylfecosterol (among all detectable sterol lipids) was used to reflect changes in sterol composition (see Table 2). DRMs were also isolated and the percentage of GP63 that were insoluble at 4° C. was used as an indicator for the integrity of DRM (see FIG. 2). Two to four independent experiments were performed and the averaged results were plotted in FIG. 3.
# (§5) Total lipids were extracted using the Folch's method [Folch, et al., 1957]. Briefly, promastigotes were harvested by centrifugation and washed once with PBS. Pellets were resuspended in chloroform:methanol (2:1) at 1.0×10^8 cells/ml with the addition of cholesta-3,5-diene (Sigma-Aldrich, FW 368.7) at 0.5 mg/10^8 cells (6.6×10^7/cell). After vortexing for 30 s, cell debris was removed by centrifugation (1000 g for 10 min) and samples were washed with 0.2 volume of 0.9% NaCl. After centrifugation, supernatants were removed and the organic phase solutions were dried under a stream of nitrogen. Samples were then dissolved in chloroform:methanol (1:2) at 1.0×10^9 cells/ml.
# (§6) Electron impact gas chromatography/mass spectrometry (GC/MS) analyses of sterol lipids were performed on a Finnigan (San Jose, Calif.) SSQ-7000 single-stage quadrupole mass spectrometer with a Varian (Walnut Creek, Calif.) 3400 GC, which is controlled by Finnigan ICIS software operated on a DEC alpha station. The extracts in solution […] were injected in a splitless mode and analyzed by GC on a Restek (Bellefonte, Pa.) RTX-5 column (15 m, 0.33 mm id, […]). The initial temperature of GC was set at 80° C. for 1 min, increased to 220° C. at a rate of 50° C./min, and then raised to a final temperature of 280° C. at a rate of 10° C./min. The temperatures of the injector, transfer line of the GC column, and of the ion-source were set at 280° C., 280° C., and 240° C., respectively. The full scan mass spectra (50 to 500 Dalton) were acquired at a rate of 1 scan/0.25 Sec.
# [6] = system: L. major spt2^− promastigotes; experiment: Detergent resistant membrane fractions (insoluble GP63), spt2^− promastigotes; format: cell-based, Leishmania major
# Method: (§7) Detergent resistant membrane fractions (DRMs) were prepared using Triton X-100 from L. major promastigotes as previously described [Zhang, et al., 2003. Such DRMs are usually enriched for raft-associated materials and have been used to characterize rafts [London, et al., 2000; Brown, et al., 1998]. A typical marker for a raft in Leishmania parasites is GP63, a GPI-anchored metalloprotease, which can be detected from DRM samples by western-blot [Zhang, et al., 2003].
# as §4, with “DRMs were also isolated and the percentage of GP63 that were insoluble at 4° C. was used as an indicator for the integrity of DRM (see FIG. 2). Two to four independent experiments were performed and the averaged results were plotted in FIG. 3.” left out
# (§8) Detergent resistant membrane fractions (DRMs) were isolated and a western blot with a monoclonal antibody again Leishmania GP63 #235 was performed as previously described [Zhang, et al., 2003]. Percentages of GP63 in soluble and insoluble fraction after extractions at 4° C. were determined using a Fuji FLA5000 phosphoimager.
# [7] = system: L. major LV39 WT promastigotes; experiment: Detergent resistant membrane fractions (insoluble GP63), WT promastigotes; format: cell-based, Leishmania major
# Method: as §7
# as §4, with “DRMs were also isolated and the percentage of GP63 that were insoluble at 4° C. was used as an indicator for the integrity of DRM (see FIG. 2). Two to four independent experiments were performed and the averaged results were plotted in FIG. 3.” left out
# as §8
# [8] = system: L. major spt2^− promastigotes; experiment: Composition of free sterols by GC/MS, spt2^− promastigotes; format: cell-based, Leishmania major; settings: 48 hours
# Method: as §3, §4, §5, §6
# [9] = system: L. major spt2^− promastigotes; experiment: Flagellar localization of FcaBP-HA (immunofluorescence), spt2^− promastigotes; format: cell-based, Leishmania major; settings: concentration 5˜10 times of EC50 for 20 hours, data not shown
# [10] = 48 h, LV39 WT promastigotes, 48 hours, read-out: EC50 in WT
smiles,measurement,setting,value
"CCCCCCC(=O)CCCCCC/C=C/C[C@@H](O)[C@H](O)[C@@](N)(CO)C(=O)O [MYR, myriocin]",EC50,[1]; [10],~55 µM
same,EC50,"[1]; LV39 WT, 750 nM ITZ, read-out: EC50 of MYR in combination with 750 nM ITZ",1.5 µM
same,EC50,"[1]; read-out: EC50 for MYR in the presence of 0.5 μM ITZ, LV39 WT, 500 nM ITZ",~1.8 µM
same,EC50,"[1]; read-out: EC50 of MYR in combination with 250 nM ITZ, LV39 WT, 250 nM ITZ",2.2 µM
same,Effect of MYR on the efficacy of ITZ on amastigotes,[2],does not improve the efficacy of ITZ
same,Sensitivity of ads1^− mutant in comparison to FV1 WT,[3],hypersensitive
CCC(C)n1ncn(-c2ccc(N3CCN(c4ccc(OCC5COC(Cn6cncn6)(c6ccc(Cl)cc6Cl)O5)cc4)CC3)cc2)c1=O (centres unmarked) [Itraconazole],EC50,[4],0.0039 µM
same,EC50 (WT)/EC50 (spt2^−),[4],282
same,Growth (%),"[4]; spt2^− + 1 nM ITZ, 48 hours",64.6%
same,Growth (%),"[4]; spt2^− + 5 nM ITZ, 48 hours",29.4%
same,"proliferation, % of control","[4]; spt2^−, 1˜10 nM ITZ, 48 hours",28˜67%
same,EC50,[1]; [10],~1.1 µM
same,EC50,"[1]; LV39 WT grown in the presence of 10 μM MYR, read-out: EC50 for ITZ in WT + 10 μM myriocin",~0.0046 µM
same,EC50,[1]; read-out: EC50 of ITZ in combination with 25 μM MYR,0.00092 µM
same,EC50,[1]; read-out: EC50 of ITZ in combination with […] MYR,0.131 µM
same,Growth (%),"[1]; WT + 1 nM ITZ, 48 hours",91.5%
same,Growth (%),"[1]; WT + 5 nM ITZ, 48 hours",81.6%
same,"growth, % of control","[1]; WT, 1˜10 nM ITZ, 48 hours",75˜95%
same,5-dehydroepisterol (%),[5]; WT + 1 nM ITZ,9.6%
same,14-methylfecosterol (%),[5]; WT + 1 nM ITZ,62.3%
same,Cholesterol (%),[5]; WT + 1 nM ITZ,2.9%
same,Episterol (%),[5]; WT + 1 nM ITZ,0.9%
same,Ergosterol (%),[5]; WT + 1 nM ITZ,24.3%
same,Total sterols/cell,[5]; WT + 1 nM ITZ,2.0 × 10^8 /cell
same,5-dehydroepisterol (%),[5]; WT + 5 nM ITZ,1.7%
same,14-methylfecosterol (%),[5]; WT + 5 nM ITZ,92.2%
same,Cholesterol (%),[5]; WT + 5 nM ITZ,3.2%
same,Ergosterol (%),[5]; WT + 5 nM ITZ,2.9%
same,Total sterols/cell,[5]; WT + 5 nM ITZ,3.3 × 10^8 /cell
same,14-methylfecosterol among all sterols,"[5]; WT, 1˜10 nM ITZ",80˜92%
same,endogenous sterols,"[5]; WT, 1˜10 nM ITZ",4˜6%
same,ITZ concentration causing significant reduction of insoluble GP63 at 4° C.,[6]; spt2^− parasites,higher than 1 nM
same,GP63 in DRM,"[6]; spt2^−, 1˜10 nM ITZ, 4° C., 45˜50% in control cells",24˜28%
same,ITZ concentration significantly inhibiting growth and DRM stability in WT,[7]; WT parasites,more than 100 nM
same,GP63 in DRM,"[7]; WT, 1˜10 nM ITZ, 4° C., 50˜55% in control cells",40˜55%
same,5-dehydroepisterol (%),[8]; spt2^− + 1 nM ITZ,3.7%
same,14-methylfecosterol (%),[8]; spt2^− + 1 nM ITZ,59.4%
same,Cholesterol (%),[8]; spt2^− + 1 nM ITZ,22.0%
same,Episterol (%),[8]; spt2^− + 1 nM ITZ,1.6%
same,Ergosterol (%),[8]; spt2^− + 1 nM ITZ,13.2%
same,Lanosterol (%),[8]; spt2^− + 1 nM ITZ,0.1%
same,Total sterols/cell,[8]; spt2^− + 1 nM ITZ,4.0 × 10^8 /cell
same,5-dehydroepisterol (%),[8]; spt2^− + 5 nM ITZ,2.1%
same,14-methylfecosterol (%),[8]; spt2^− + 5 nM ITZ,75.2%
same,Cholesterol (%),[8]; spt2^− + 5 nM ITZ,17.1%
same,Episterol (%),[8]; spt2^− + 5 nM ITZ,0.4%
same,Ergosterol (%),[8]; spt2^− + 5 nM ITZ,4.0%
same,Lanosterol (%),[8]; spt2^− + 5 nM ITZ,1.2%
same,Total sterols/cell,[8]; spt2^− + 5 nM ITZ,4.4 × 10^8 /cell
same,endogenous sterols,"[8]; spt2^−, 1˜10 nM ITZ",4˜6%
CN(C/C=C/C#CC(C)(C)C)Cc1cccc2ccccc12 [Terbinafine],EC50,[4],3.3 µM
same,EC50 (WT)/EC50 (spt2^−),[4],1.3
same,Selectivity against spt2^− parasites (in words),[4]; spt2^− versus LV39 WT,did not cause the extreme hypersensitivity
same,Mislocalization of FcaBP-HA,[9],did not show such defect
same,EC50,[1]; [10],4.3 µM
same,Sensitivity of ads1^− mutant in comparison to FV1 WT,[3],very similar EC50s; also recorded: little or no selectivity
